Data published in PubChem BioAssay (NCI).
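Five compound concentrations were applied to cells in 96-well plates for 48 hours; endpoints were derived by simple linear interpolation of the resulting dose-response curve. TGI: total growth inhibition.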

Experiments:
Assay in all cases: inhibition of tumour cell growth, NCI panel, 48 h
HOP-92 NSCLC = test system: HOP-92 NSCLC
MOLT-4 leukemia = test system: MOLT-4 leukemia
COLO 205 colon = test system: COLO 205 colon
HL-60(TB) leukemia = test system: HL-60(TB) leukemia
UO-31 renal = test system: UO-31 renal
NCI/ADR-RES ovarian = test system: NCI/ADR-RES ovarian
SK-MEL-28 melanoma = test system: SK-MEL-28 melanoma
UACC-62 melanoma = test system: UACC-62 melanoma
NCI-H23 lung = test system: NCI-H23 lung
IGROV1 ovarian = test system: IGROV1 ovarian
SK-OV-3 ovarian = test system: SK-OV-3 ovarian
CCRF-CEM leukemia = test system: CCRF-CEM leukemia
HCT-116 colon = test system: HCT-116 colon
SNB-75 CNS = test system: SNB-75 CNS
ACHN renal = test system: ACHN renal
NCI-H226 lung = test system: NCI-H226 lung
RPMI-8226 leukemia = test system: RPMI-8226 leukemia
RXF 393 renal = test system: RXF 393 renal
SK-MEL-2 melanoma = test system: SK-MEL-2 melanoma
MCF7 breast = test system: MCF7 breast
PC-3 prostate = test system: PC-3 prostate
MALME-3M melanoma = test system: MALME-3M melanoma
SK-MEL-5 melanoma = test system: SK-MEL-5 melanoma
KM12 colon = test system: KM12 colon
HOP-62 NSCLC = test system: HOP-62 NSCLC
BT-549 breast = test system: BT-549 breast
DU-145 prostate = test system: DU-145 prostate
NCI-H460 lung = test system: NCI-H460 lung
HT29 colon = test system: HT29 colon
OVCAR-5 ovarian = test system: OVCAR-5 ovarian
SN12C renal = test system: SN12C renal
M14 melanoma = test system: M14 melanoma
HCC-2998 colon = test system: HCC-2998 colon
HS 578T breast = test system: HS 578T breast
UACC-257 melanoma = test system: UACC-257 melanoma
A549 NSCLC = test system: A549 NSCLC
MDA-MB-435 = test system: MDA-MB-435
SR leukemia = test system: SR leukemia
SF-539 CNS = test system: SF-539 CNS
CAKI-1 renal = test system: CAKI-1 renal
SW-620 colon = test system: SW-620 colon
LOX IMVI melanoma = test system: LOX IMVI melanoma
SF-268 CNS = test system: SF-268 CNS
SF-295 CNS = test system: SF-295 CNS
NCI-H522 lung = test system: NCI-H522 lung
MDA-N = test system: MDA-N
EKVX NSCLC = test system: EKVX NSCLC
OVCAR-8 ovarian = test system: OVCAR-8 ovarian
K-562 leukemia = test system: K-562 leukemia
786-0 renal = test system: 786-0 renal
OVCAR-4 ovarian = test system: OVCAR-4 ovarian
OVCAR-3 ovarian = test system: OVCAR-3 ovarian
A498 renal = test system: A498 renal
SNB-19 CNS = test system: SNB-19 CNS
T-47D breast = test system: T-47D breast
HCT-15 colon = test system: HCT-15 colon
U251 CNS = test system: U251 CNS
TK-10 renal = test system: TK-10 renal
MDA-MB-231 breast = test system: MDA-MB-231 breast

Compound `COc1cc(S(=O)(=O)Nc2ccc(-c3csc(N4C(=O)C(Cl)C4c4cccs4)n3)cc2)ccc1Cl` (stereo unspecified) has a TGI (HOP-92 NSCLC) of 45.5 µM, a TGI (MOLT-4 leukemia) of over 100 µM and a TGI (COLO 205 colon) of over 100 µM. For the same compound, the TGI (HL-60(TB) leukemia) was over 100 µM, the TGI (UO-31 renal) was over 100 µM and the TGI (NCI/ADR-RES ovarian) was over 100 µM. For the same compound, the TGI (SK-MEL-28 melanoma) was over 100 µM, the TGI (UACC-62 melanoma) was over 100 µM and the TGI (NCI-H23 lung) was over 100 µM. It also gave a TGI (IGROV1 ovarian) of over 100 µM, a TGI (SK-OV-3 ovarian) of over 100 µM and a TGI (CCRF-CEM leukemia) of 35.7 µM. It also gave a TGI (HCT-116 colon) of over 100 µM, a TGI (SNB-75 CNS) of over 100 µM and a TGI (ACHN renal) of over 100 µM. The TGI (NCI-H226 lung) was over 100 µM, the TGI (RPMI-8226 leukemia) was over 100 µM and the TGI (RXF 393 renal) was 86.4 µM. For the same compound, the TGI (SK-MEL-2 melanoma) was over 100 µM, the TGI (MCF7 breast) was over 100 µM and the TGI (PC-3 prostate) was over 100 µM. It also gave a TGI (MALME-3M melanoma) of over 100 µM, a TGI (SK-MEL-5 melanoma) of over 100 µM and a TGI (KM12 colon) of over 100 µM. The TGI (HOP-62 NSCLC) was over 100 µM, the TGI (BT-549 breast) was over 100 µM and the TGI (DU-145 prostate) was over 100 µM. It also gave a TGI (NCI-H460 lung) of over 100 µM, a TGI (HT29 colon) of over 100 µM and a TGI (OVCAR-5 ovarian) of over 100 µM. For the same compound, the TGI (SN12C renal) was over 100 µM, the TGI (M14 melanoma) was over 100 µM and the TGI (HCC-2998 colon) was over 100 µM. For the same compound, the TGI (HS 578T breast) was over 100 µM, the TGI (UACC-257 melanoma) was over 100 µM and the TGI (A549 NSCLC) was over 100 µM. The TGI (MDA-MB-435) was over 100 µM, the TGI (SR leukemia) was 91.5 µM and the TGI (SF-539 CNS) was over 100 µM. The TGI (CAKI-1 renal) was over 100 µM, the TGI (SW-620 colon) was over 100 µM and the TGI (LOX IMVI melanoma) was 5.15 µM. For the same compound, the TGI (SF-268 CNS) was over 100 µM, the TGI (SF-295 CNS) was over 100 µM and the TGI (NCI-H522 lung) was 30.6 µM. The TGI (MDA-N) was over 100 µM, the TGI (EKVX NSCLC) was over 100 µM and the TGI (OVCAR-8 ovarian) was over 100 µM. It also gave a TGI (K-562 leukemia) of over 100 µM, a TGI (786-0 renal) of 68.3 µM and a TGI (OVCAR-4 ovarian) of 77.5 µM. The TGI (OVCAR-3 ovarian) was over 100 µM, the TGI (A498 renal) was over 100 µM and the TGI (SNB-19 CNS) was over 100 µM. For the same compound, the TGI (T-47D breast) was over 100 µM and the TGI (HCT-15 colon) was over 100 µM.
In the case of `Cc1ccc(C(=O)N/N=C2/C(=O)c3c4ccccc4cc4cccc2c34)cc1`, the TGI (HOP-92 NSCLC) is reported as over 94 µM, the TGI (MOLT-4 leukemia) is reported as over 100 µM and the TGI (COLO 205 colon) is reported as over 100 µM. For the same compound, the TGI (HL-60(TB) leukemia) was over 100 µM, the TGI (UO-31 renal) was over 100 µM and the TGI (NCI/ADR-RES ovarian) was over 91.2 µM. For the same compound, the TGI (SK-MEL-28 melanoma) was 97.4 µM, the TGI (UACC-62 melanoma) was over 93.1 µM and the TGI (NCI-H23 lung) was 77.8 µM. The TGI (IGROV1 ovarian) was over 85.2 µM, the TGI (SK-OV-3 ovarian) was over 75.9 µM and the TGI (CCRF-CEM leukemia) was over 100 µM. For the same compound, the TGI (HCT-116 colon) was 27.3 µM, the TGI (SNB-75 CNS) was over 81 µM and the TGI (U251 CNS) was over 67.3 µM. It also gave a TGI (ACHN renal) of 39.3 µM, a TGI (NCI-H226 lung) of over 100 µM and a TGI (RPMI-8226 leukemia) of over 87.1 µM. For the same compound, the TGI (RXF 393 renal) was over 69 µM, the TGI (SK-MEL-2 melanoma) was over 100 µM and the TGI (MCF7 breast) was 11.6 µM. For the same compound, the TGI (PC-3 prostate) was over 100 µM, the TGI (MALME-3M melanoma) was 44.4 µM and the TGI (SK-MEL-5 melanoma) was over 70.7 µM. The TGI (KM12 colon) was over 84.3 µM, the TGI (TK-10 renal) was over 100 µM and the TGI (HOP-62 NSCLC) was 43.4 µM. The TGI (BT-549 breast) was over 100 µM, the TGI (NCI-H460 lung) was over 77.2 µM and the TGI (HT29 colon) was 97.5 µM. For the same compound, the TGI (OVCAR-5 ovarian) was over 100 µM, the TGI (SN12C renal) was 76.5 µM and the TGI (M14 melanoma) was over 100 µM. For the same compound, the TGI (HCC-2998 colon) was over 100 µM, the TGI (HS 578T breast) was 58.1 µM and the TGI (UACC-257 melanoma) was over 100 µM. The TGI (A549 NSCLC) was over 100 µM, the TGI (MDA-MB-435) was over 73.4 µM and the TGI (SR leukemia) was over 100 µM. The TGI (SF-539 CNS) was over 92.9 µM, the TGI (CAKI-1 renal) was over 81 µM and the TGI (SW-620 colon) was over 100 µM. For the same compound, the TGI (MDA-MB-231 breast) was over 100 µM, the TGI (LOX IMVI melanoma) was over 100 µM and the TGI (SF-268 CNS) was 88.2 µM. The TGI (SF-295 CNS) was 43.2 µM, the TGI (NCI-H522 lung) was 59.8 µM and the TGI (MDA-N) was over 100 µM. For the same compound, the TGI (EKVX NSCLC) was over 100 µM, the TGI (OVCAR-8 ovarian) was over 100 µM and the TGI (K-562 leukemia) was over 100 µM. It also gave a TGI (786-0 renal) of 74.1 µM, a TGI (OVCAR-4 ovarian) of over 100 µM and a TGI (OVCAR-3 ovarian) of 66.6 µM. It also gave a TGI (A498 renal) of over 100 µM, a TGI (SNB-19 CNS) of over 89.8 µM and a TGI (T-47D breast) of 83.2 µM. It also gave a TGI (HCT-15 colon) of over 100 µM.
`[N-]=[N+]=Nc1ccc2c(c1)Sc1ccccc1N2CCCCN1CCN(C(=O)CCNC(=O)Cc2ccc(C(=O)c3ccccc3)cc2)CC1` showed a TGI (HOP-92 NSCLC) of over 29.2 µM, a TGI (MOLT-4 leukemia) of 5.86 µM and a TGI (COLO 205 colon) of 8.92 µM. For the same compound, the TGI (HL-60(TB) leukemia) was 5.57 µM, the TGI (UO-31 renal) was over 100 µM and the TGI (NCI/ADR-RES ovarian) was over 39.1 µM. For the same compound, the TGI (SK-MEL-28 melanoma) was 9.89 µM, the TGI (UACC-62 melanoma) was 19.6 µM and the TGI (NCI-H23 lung) was over 44 µM. The TGI (IGROV1 ovarian) was over 35.5 µM, the TGI (SK-OV-3 ovarian) was over 100 µM and the TGI (CCRF-CEM leukemia) was 8.26 µM. The TGI (HCT-116 colon) was 18.9 µM, the TGI (SNB-75 CNS) was over 24.4 µM and the TGI (U251 CNS) was over 24.6 µM. For the same compound, the TGI (ACHN renal) was over 60.5 µM, the TGI (NCI-H226 lung) was over 100 µM and the TGI (RPMI-8226 leukemia) was 4.87 µM. The TGI (RXF 393 renal) was over 100 µM, the TGI (SK-MEL-2 melanoma) was 8.97 µM and the TGI (MCF7 breast) was 5.78 µM. The TGI (PC-3 prostate) was over 21.3 µM, the TGI (MALME-3M melanoma) was 10.7 µM and the TGI (SK-MEL-5 melanoma) was 4.39 µM. It also gave a TGI (KM12 colon) of 23 µM, a TGI (TK-10 renal) of over 75.6 µM and a TGI (HOP-62 NSCLC) of over 100 µM. The TGI (BT-549 breast) was 10.6 µM, the TGI (DU-145 prostate) was over 100 µM and the TGI (NCI-H460 lung) was over 23.3 µM. It also gave a TGI (HT29 colon) of 4.67 µM, a TGI (OVCAR-5 ovarian) of 51.4 µM and a TGI (SN12C renal) of over 33 µM. It also gave a TGI (M14 melanoma) of 11.8 µM, a TGI (HCC-2998 colon) of 6.08 µM and a TGI (HS 578T breast) of over 100 µM. For the same compound, the TGI (UACC-257 melanoma) was 9.96 µM, the TGI (A549 NSCLC) was over 100 µM and the TGI (MDA-MB-435) was 6.44 µM. The TGI (SF-539 CNS) was 17.2 µM, the TGI (CAKI-1 renal) was over 100 µM and the TGI (SW-620 colon) was over 39.3 µM. The TGI (MDA-MB-231 breast) was 16.9 µM, the TGI (LOX IMVI melanoma) was 5.17 µM and the TGI (SF-268 CNS) was 16 µM. The TGI (SF-295 CNS) was 10.1 µM, the TGI (NCI-H522 lung) was 7.51 µM and the TGI (MDA-N) was 14.1 µM. It also gave a TGI (EKVX NSCLC) of over 100 µM, a TGI (OVCAR-8 ovarian) of over 100 µM and a TGI (786-0 renal) of 22.9 µM. It also gave a TGI (OVCAR-4 ovarian) of over 25.6 µM, a TGI (OVCAR-3 ovarian) of 18.3 µM and a TGI (A498 renal) of over 35.9 µM. For the same compound, the TGI (SNB-19 CNS) was over 56.4 µM, the TGI (T-47D breast) was 28.7 µM and the TGI (HCT-15 colon) was 8.52 µM.
